Data as given in EP1200445B1, “THIENOPYRANECARBOXAMIDE DERIVATIVES” (RECORDATI INDUSTRIA CHIMICA E FARMACEUTICA S.p.a., priority 1999, dated 2001).
Where two headings read alike, the source gives them in different places.

Key:
[1] = test system: urethral contractions (UC) induced by noradrenaline (NA); assay: Effects on urethral contractions induced by noradrenaline injection in dogs after i.v. administration; format: in vivo, beagle dogs; settings: for ED50: Canis lupus familiaris, iv, anaesthetised male beagle dogs, i.v., dose inhibiting by 50% the NA-induced increase in urethral pressure, read-out: UC ID50 NA; for Ratio (DBP/UC): ratio between the active doses DBP ED25 / UC ID50, dogs i.v.
Description: The experiments were performed according to the method of Imagawa et al. (J. Pharmacol. Methods 22, 103-111 (1989)), with substantial modifications, as follows: adult male beagle dogs, weighing 8-10 kg, were anaesthetised with pentobarbital sodium (30 mg/kg i.v. and 2 mg/kg/h i.v.), intubated and spontaneously ventilated with room air. In order to monitor systemic blood pressure (BP), a polyethylene (PE) catheter was introduced into the aortic arch through the left femoral artery. A collateral of the left femoral vein was cannulated for infusion of anaesthetic, and the right femoral vein was cannulated for administration of compounds. For intraarterial (i.a.) injection of noradrenaline (NA), a PE catheter was introduced into the lower portion of the abdominal aorta via the right external iliac artery. Through such procedure, NA was selectively distributed to the lower urinary tract. A paramedian vertical suprapubic incision extending from the base of the pelvis to the mid-abdominal region was made and the bladder and the prostate were exposed. The bladder was manually emptied with a syringe. Prostatic urethral pressure was monitored with a Mikro-tip cathe[…]) introduced into the bladder via the external urethral meatus, and withdrawn until the pressure transducer was positioned in the prostatic region of the urethra. A ligature was secured between the neck of the bladder and urethra to isolate the response of the latter and to avoid any interaction with the bladder. Another ligature was put around the Mikro-tip catheter at the external meatus, to secure the catheter itself. […] In order to compare the effects of the administered compound, dose/response curves (log dose transformation) were constructed by computing, at the peak effect, the percent decrease in diastolic blood pressure and percent inhibition of the increase in urethral pressure induced by NA.

[2] = test system: diastolic blood pressure (DBP); assay: Effects on blood pressure in dogs after i.v. administration; format: in vivo; settings: anaesthetised male beagle dogs, dose inducing a 25% decrease in diastolic blood pressure
Description: The experiments were performed according to the method of Imagawa et al. (J. Pharmacol. Methods 22, 103-111 (1989)), with substantial modifications, as follows: adult male beagle dogs, weighing 8-10 kg, were anaesthetised with pentobarbital sodium (30 mg/kg i.v. and 2 mg/kg/h i.v.), intubated and spontaneously ventilated with room air. In order to monitor systemic blood pressure (BP), a polyethylene (PE) catheter was introduced into the aortic arch through the left femoral artery. A collateral of the left femoral vein was cannulated for infusion of anaesthetic, and the right femoral vein was cannulated for administration of compounds. For intraarterial (i.a.) injection of noradrenaline (NA), a PE catheter was introduced into the lower portion of the abdominal aorta via the right external iliac artery. Through such procedure, NA was selectively distributed to the lower urinary tract. A paramedian vertical suprapubic incision extending from the base of the pelvis to the mid-abdominal region was made and the bladder and the prostate were exposed. The bladder was manually emptied with a syringe. Prostatic urethral pressure was monitored with a Mikro-tip catheter (5F) introduced into the bladder via the external urethral meatus, and withdrawn until the pressure transducer was positioned in the prostatic region of the urethra. A ligature was secured between the neck of the bladder and urethra to isolate the response of the latter and to avoid any interaction with the bladder. Another ligature was put around the Mikro-tip catheter at the external meatus, to secure the catheter itself.
After a stabilising period following the surgical procedure (30 minutes), in which arterial and prostatic urethral pressures were continuously monitored as basal values, i.a. administration of NA was made at intervals of 20 minutes.
The doses of NA chosen were such to produce an increase of at least 100% in urethral pressure. The test compounds were administered i.v. in a cumulative manner with intervals of 15-20 minutes between administrations. […]

α1L adrenoceptor subtype = biological target: T1, α1L adrenoceptor subtype (Oryctolagus cuniculus, UniProt O02824); assay: Functional affinity for α1L-adrenoceptors: noradrenaline-induced contractions of rabbit aorta pretreated with chloroethylclonidine; format: biochemical; settings: rabbit aorta rings pretreated with chloroethylclonidine, NA-induced contractions, Schild plot or apparent Kb
T1 sequence (O02824 1-466): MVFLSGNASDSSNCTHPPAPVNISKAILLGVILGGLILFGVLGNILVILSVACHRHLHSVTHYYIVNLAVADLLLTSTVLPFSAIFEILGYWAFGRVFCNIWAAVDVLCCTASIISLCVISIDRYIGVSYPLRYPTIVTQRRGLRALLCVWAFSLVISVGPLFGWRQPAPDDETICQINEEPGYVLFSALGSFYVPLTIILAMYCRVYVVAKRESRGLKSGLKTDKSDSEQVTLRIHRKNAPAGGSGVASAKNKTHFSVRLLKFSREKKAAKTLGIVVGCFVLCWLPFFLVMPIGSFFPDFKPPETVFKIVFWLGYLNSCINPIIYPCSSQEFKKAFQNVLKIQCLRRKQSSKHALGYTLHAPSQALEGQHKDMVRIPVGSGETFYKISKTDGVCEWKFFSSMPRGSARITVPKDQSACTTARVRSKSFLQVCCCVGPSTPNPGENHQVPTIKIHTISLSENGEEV
Description: Adult male New Zealand rabbits were sacrificed by cervical dislocation. The aorta was removed, placed in Krebs-Henseleit buffer and dissected free of adhering tissue. […] After washout of NA and re-equilibration of the tissue (45 minutes), the drug to be tested was added and, after 30 minutes, a second NA-cumulative-concentration/response curve constructed. Each antagonist concentration was tested using 2-3 aortic rings from different rabbits.

[3] = test system: urethral contractions (UC) induced by noradrenaline (NA); settings: dogs, i.v.; data from Leonardi et al., J Pharmacol Exp Ther 281, 1272-1283 (1997); cited from earlier work
[4] = test system: diastolic blood pressure (DBP); settings: dogs, i.v.; data from Leonardi et al., J Pharmacol Exp Ther 281, 1272-1283 (1997); cited from earlier work

| pKb (α1L adrenoceptor subtype) | Structure (SMILES) | ED50 [1] [µg/kg] | Ratio (DBP/UC) [1] | DBP ED25 [2] [µg/kg] | UC ID50 NA [3] [µg/kg] | DBP ED25 [4] [µg/kg] |
| --- | --- | --- | --- | --- | --- | --- |
|  | COc1ccc(Cl)cc1N1CCN(CCCNC(=O)c2csc3c(=O)cc(-c4ccccc4)oc23)CC1 [Example 1, N-{3-[4-(5-Chloro-2-methoxyphenyl)-1-piperazinyl]-propyl}-7-oxo-5-phenyl-7H-thieno[3,2-b]pyran-3-carboxamide] | 5.3 | 52.8 | 280 |  |  |
|  | O=C(NCCCN1CCN(c2ccccc2OCC(F)(F)F)CC1)c1csc2c(=O)cc(-c3ccccc3)oc12 [Example 5, 7-Oxo-5-phenyl-N-{3-[4-[2-(2,2,2-trifluoroethoxy)-phenyl]-1-piperazinyl]-propyl}-7H-thieno[3,2-b]pyran-3-carboxamide] | 2.7 | >370 | >1000 |  |  |
|  | COc1ccccc1N1CCN(CCCNC(=O)c2csc3c(=O)cc(-c4ccccc4)oc23)CC1 [Example 2, N-{3-[4-(2-Methoxyphenyl)-1-piperazinyl]-propyl}-7-oxo-5-phenyl-7H-thieno[3,2-b]pyran-3-carboxamide] | 1.8 | 19.7 | 35.5 |  |  |
| 8.64 | COc1ccccc1N1CCN(CCCNC(=O)c2cccc3c(=O)c(C)c(-c4ccccc4)oc23)CC1 [Compound A] |  |  |  | 2.4 | 243 |
